Target: Ubiquitin-conjugating enzyme E2 E1 (Homo sapiens, UniProt P51965)
Assay: HTRF Assay : The UAE enzymatic reaction totals 50 μL and contains 50 mmol HEPES (pH 7.5), 0.05% BSA, 2.5 mM MgCl2, 0.1 uM ATP, 8 nM GST-Ubc-2, 35 nM flag-ubiquitin, 1 nM recombinant human UAE or mouse UAE. Compounds for this hUAE 1050 assay are tested at 10 point 3-fold dilution. The top concentration for this assay is 1 μM. Each compound is ordered in duplicate on the same plate.

Chain of Ubiquitin-conjugating enzyme E2 E1 (P51965 whole entry): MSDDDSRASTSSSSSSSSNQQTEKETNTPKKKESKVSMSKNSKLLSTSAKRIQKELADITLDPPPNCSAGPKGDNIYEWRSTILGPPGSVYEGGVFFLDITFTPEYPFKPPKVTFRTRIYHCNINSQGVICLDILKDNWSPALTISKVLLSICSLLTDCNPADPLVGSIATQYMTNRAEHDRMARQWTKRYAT

IC50: < 0.01 µM
Compound: NS(=O)(=O)OC[C@H]1C[C@@H](Nc2ccnc3cc(-c4cccc5ccccc45)nn23)[C@H](O)[C@@H]1O (racemic)

Reference: ChEMBL document CHEMBL5726263, “Pyrazolopyrimidinyl inhibitors of ubiquitin-activating enzyme” (2017)
